Experimental data reported in US11135207B2, “Inhibitors of dihydroceramide desaturase for treating disease” (Centaurus Therapeutics, priority 2016, dated 2021).
Where two headings read alike, the source gives them in different places.

Experiments:
[1] = test system: insulin-stimulated Akt phosphorylation in C2C12 myotubes; assay: C2C12 myotube assay of insulin-stimulated phosphorylation of Akt; assay type: cell-based; conditions: Mus musculus, in the presence of palmitate, read-out: half-maximal effective concentration (EC50) for increasing insulin-stimulated Akt phosphorylation
Procedure: C2C12 Myotube Assay of Insulin-Stimulated Phosphorylation of Akt:
C2C12 myotubes are treated with 0.75 mM BSA-conjugated palmitate for 16 hours in the presence or absence of 7 non-zero concentrations of fenretinide (Des1 inhibitor control compound) or various test articles, followed by a 10-minute stimulation with insulin (100 nM). Cells are subsequently harvested and boiled in reducing SDS sample buffer and subjected to SDS-PAGE followed by detection of phosphorylated Akt, total Akt, and a suitable loading control (e.g. actin or GAPDH) by western blot using fluorescently-conjugated secondary antibodies. Band intensities are quantitated by an Odyssey imaging system (Li-COR), but could also be performed using HRP-conjugated secondary antibodies/enhanced chemiluminescence or by colorimetric readout.
Moreover, while currently contemplated for SDS-PAGE/immunoblot format, this assay could be adapted to ELISA or in-cell western (immunocytochemistry) formats for higher throughput testing of compounds. An increase of 30% compared to vehicle control (0 μM test article) is indicative of an active compound, and an increase of 50% compared to control is preferred. […] Des1 inhibitors disclosed herein are expected to be effective in this assay.

Des1 = Des1 (Homo sapiens (Human), UniProt O15121); assay: Jurkat T cell measurement of conversion of dihydroceramide to ceramide; assay type: cell-based; conditions: for inhibition at 0.5 µM: 0.5 μM compound, read-out: Des1 % Inhib (0.5 μM); for inhibition at 1 µM: read-out: Des1 % Inhib (1 μM)
Sequence of Des1 (O15121 whole entry): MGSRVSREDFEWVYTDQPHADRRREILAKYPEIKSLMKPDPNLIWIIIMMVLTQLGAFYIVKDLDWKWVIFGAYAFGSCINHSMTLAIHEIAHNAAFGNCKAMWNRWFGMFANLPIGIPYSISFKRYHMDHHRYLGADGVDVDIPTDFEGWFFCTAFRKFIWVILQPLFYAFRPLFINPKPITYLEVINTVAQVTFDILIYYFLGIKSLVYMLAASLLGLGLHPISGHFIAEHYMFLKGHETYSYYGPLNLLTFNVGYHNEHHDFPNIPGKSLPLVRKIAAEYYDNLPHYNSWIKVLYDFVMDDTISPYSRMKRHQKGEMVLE
Procedure: Jurkat T Cell Measurement of Conversion of Dihydroceramide to Ceramide
Jurkat clone E6-1 cells were grown and then seeded at 10^6 cells/mL in a 96-well plate (400 μL in each well. The cells were administered 100 μL of cell culture media containing 50-μM NBD-C6-dihydroceramide (Des1 substrate), affording a final concentration of substrate of 10 μM. The cells were incubated with substrate at 4° C. for 30 minutes. Following the incubation at 4° C., the cell suspension was centrifuged at 1200 rpm for 3 minutes, and the cell pellet is resuspended in 400 μL of fresh media containing various concentrations of either fenretinide (known Des1 inhibitor control compound) or test article. The final concentrations of control compound and test compounds were tested in a range from 0-10 μM. The cells and compounds were incubated at 37° C. for 3 hours. Following the 3-hour incubation, the plate was centrifuged at 2500 g for 3 minutes at 4° C., followed by collection and transfer of 200 μL of the supernatant to a new 96-well plate with 300 μL of methanol an containing appropriate internal standards for liquid chromatography/tandem mass spectroscopy (LC/MS/MS) analysis (internal standard: 500 nM labetalol and 100 nM alprazolam). The samples were vortexed for 2 minutes followed by centrifugation at 3,220 g for 20 minutes. Following centrifugation, 200 μL of the supernatant was transferred to a new 96-well plate for LC-MS/MS analysis to determine the amount of NBD-C6-ceramide (Des1 product) produced. The assay was typically performed in duplicate. A reduction of at least 30% compared to vehicle control (0 μM test article) is indicative of an active compound, and a reduction of 75% compared to vehicle control is preferred.

CFTR-KO mice = conditions: cited from earlier work
[2] = Jurkat clone E6-1 cells, NBD-C6-dihydroceramide substrate, read-out: Des1 IC50
[3] = 1 μM compound, Jurkat clone E6-1 cells

| Compound | inhibition at 0.5 µM (Des1; Jurkat clone E6-1 cells) | IC50 (Des1; [2]) | inhibition at 1 µM (Des1; [3]) | other results |
| --- | --- | --- | --- | --- |
| CC1=C(/C=C/C(C)=C/C=C/C(C)=C/C(=O)Nc2ccc(O)cc2)C(C)(C)CCC1 [fenretinide] | – | – | – | EC50 [1]: 0.6 µM; IC50 (Des1; Jurkat clone E6-1 cells, read-out: half-maximal inhibitory concentration (IC50)): 0.1 to 0.25 µM; susceptibility to infection with Pseudomonas aeruginosa (CFTR-KO mice; CFTR-KO mice): reduce susceptibility to infection with Pseudomonas aeruginosa; lung AA/DHA ratio (CFTR-KO mice; lungs of CFTR-KO mice): normalize this ratio |
| O=C(Nc1ccc(O)cn1)[C@@H]1C[C@H]1c1ccccc1 [Example 10, (trans)-N-(5-hydroxy-pyridin-2-yl)-2-phenyl-cyclopropane-carboxamide] | – | 0.23 µM | 67.2% | – |
| O=C(Nc1ccc(O)cn1)c1ccc(C2CCCCC2)cc1 [Example 20, N-(5-hydroxy-pyridin-2-yl)-4-cyclohexyl-benzamide] | – | 0.004 µM | – | inhibition at 1 µM (Des1; Jurkat): 95.9% |
| O=C(Nc1ccc(O)cn1)c1ccccc1 [Example 25, N-(5-hydroxy-pyridin-2-yl)-benzamide] | – | – | 4.44% | – |
| O=C(/C=C/c1ccccc1)Nc1ccc(O)cn1 [Example 8, N-(5-hydroxy-pyridin-2-yl)-cinnamide] | – | 0.06 µM | 85.9% | – |
| COc1ccc(C(=O)Nc2ccc(O)cn2)cc1 [Example 26, N-(5-hydroxy-pyridin-2-yl)-4-methoxy-benzamide] | – | 0.24 µM | 74.5% | – |

Further lines, with some results ahead:

| inhibition at 0.5 µM (Des1; Jurkat clone E6-1 cells) | IC50 (Des1; [2]) | inhibition at 1 µM (Des1; [3]) | Compound | other results |
| --- | --- | --- | --- | --- |
| 97.3% | 0.005 µM | – | O=C(CC1CCN(c2ccc(Cl)cc2)CC1)Nc1ccc(O)cn1 [Example 51, 2-[1-(4-chlorophenyl)piperidin-4-yl]-N-(5-hydroxypyridin-2-yl)acetamide] | – |
| 92.3% | 0.14 µM | – | O=C(CN1CCN(c2ccc(F)cc2)CC1)Nc1ccc(O)cn1 [Example 50, 2-[4-(4-fluorophenyl)piperazin-1-yl]-N-(5-hydroxypyridin-2-yl)acetamide] | – |
| – | 0.016 µM | – | CC(C)c1ccc(C(=O)Nc2ccc(O)cn2)cc1 [Example 27, N-(5-hydroxy-pyridin-2-yl)-4-isopropyl-benzamide] | – |
| 71.1% | – | – | O=C(Nc1ccc(O)cn1)c1ccc(-c2ccccn2)cc1 [Example 33, N-(5-hydroxy-pyridin-2-yl)-4-(pyridin-2-yl)benzamide] | – |
